Results reported in US20200270309A1, “MALEIMIDE GROUP-MODIFIED ANGIOGENESIS INHIBITOR HM-1 AND USE THEREOF” (NANJING ANJI BIOLOGICAL TECHNOLOGY CO., LTD, priority 2017, published 2020).
Marks after values point to notes of the source that are not given here. Peptide text beside a SMILES is read from it. * marks the point of attachment. X65 = O=C1C=CC(=O)N1c1cccc(CCCCCCCCCCCCC(=O)*)c1; X64 = O=C1C=CC(=O)N1c1cccc(CCCCCCCCCC(=O)*)c1; X68 = O=C1C=CC(=O)N1c1ccccc1CCCCCCCCCCCC(=O)*; X72 = O=C1C=CC(=O)N1c1ccccc1CCCCCCCCCCC(=O)*; X55 = O=C1C=CC(=O)N1c1ccccc1CCCCCCCCC(=O)*; X46 = O=C1C=CC(=O)N1c1cccc(CCCCC(=O)*)c1; X63 = O=C1C=CC(=O)N1c1ccccc1CCCCCCC(=O)*; X49 = O=C1C=CC(=O)N1c1ccccc1CCCCCC(=O)*; X79 = O=C1C=CC(=O)N1c1cccc(CCC(=O)*)c1

How the values were obtained:
[1] = test system: collagen-induced arthritis; test: Mouse collagen-induced arthritis (CIA) animal model; format: in vivo; settings: DBA/1 mice CIA model, dose 4.0 mg/kg, subcutaneous from day 30, n=10; for Clinical score: highest score 16
[2] = test system: human retinal capillary endothelial cells (HRCECs); test: MTT proliferation inhibition on HRCECs; format: cell-based; settings: 48 h; for A570 nm-A630 nm: mean±SD
Method: An MTT method was used to detect the inhibitory activity of the angiogenesis inhibitor polypeptide on proliferation of HRCECs. HRCECs were digested and collected with trypsin after being cultured in an incubator at 37° C. with 5% CO2 to a density of 90% or more. The cells were resuspended with a culture solution and counted under a microscope, the cell concentration was adjusted to 3.0×10^4 cells/mL, and the cell suspension was inoculated into a 96-well plate at 100 μL/well, and cultured overnight in an incubator at 37° C. with 5% CO2. After the cells were completely adhered to the wall, cells with the addition of the angiogenesis inhibitor polypeptide were used as administration groups, cells with the addition of Avastin were used as a positive control group, and cells with the addition of culture solution without any drugs were used as a blank control group. The cells were diluted to respective predetermined concentrations with the culture solution. The diluent were added into 96-well plates respectively at 100 μL per well, and the cells were cultured at 37° C. for 48 h in an incubator with 5% CO2. 20 μL of 5 mg/mL MTT was added into each well of the 96-well plate, and the cultivation was continued for 4 h. The culture medium was removed, and 100 μL of DMSO was added to each well for dissolution. The absorbance was measured at a detection wavelength of 570 nm and a reference wavelength of 630 nm using a microplate reader, and the PIR was calculated by the formula as follows:
PIR (%)=1−administration group/negative group
The experiment was repeated independently three times. The results were expressed as mean±SD, and statistical T test was conducted. *P<0.05 indicates significant difference, and **P<0.01 indicates extremely significant difference.

Row | Compound | Joint swelling degree (mm) [1] [mm] | Left and right paw swelling degree (mm) [1] [mm] | Clinical score [1] | Inhibition rate (%) ([2]; dose 0.05 μM) [%*] | A570 nm-A630 nm ([2]; dose 0.05 μM) | Inhibition rate (%) ([2]; dose 0.1 μM) [%**] | A570 nm-A630 nm ([2]; dose 0.1 μM) | Inhibition rate (%) ([2]; dose 0.2 μM) [%*] | A570 nm-A630 nm ([2]; dose 0.2 μM)
1 | C[C@H](NC(=O)CNC(=O)[C@H](CCCNC(=N)N)NC(=O)CCCCCc1ccccc1N1C(=O)C=CC1=O)C(=O)N[C@@H](CC(=O)O)C(=O)N[C@@H](CCCNC(=N)N)C(=O)N[C@@H](C)C(=O)NCC(=O)NCC(=O)NCC(=O)NCC(=O)N[C@@H](CCCNC(=N)N)C(=O)NCC(=O)N[C@@H](CC(=O)O)C(=O)O [X17] (X49-RGADRAGGGGRGD-OH) | 0.79 ± 0.12 | 0.78 ± 0.17 | 9.13 ± 1.31 | 55.10 | 0.5934 ± 0.03887 | 62.16 | 0.5001 ± 0.02347 | 65.08 | 0.4616 ± 0.02184
2 | C[C@H](NC(=O)CNC(=O)[C@H](CCCNC(=N)N)NC(=O)CCCCCCc1ccccc1N1C(=O)C=CC1=O)C(=O)N[C@@H](CC(=O)O)C(=O)N[C@@H](CCCNC(=N)N)C(=O)N[C@@H](C)C(=O)NCC(=O)NCC(=O)NCC(=O)NCC(=O)N[C@@H](CCCNC(=N)N)C(=O)NCC(=O)N[C@@H](CC(=O)O)C(=O)O [X18] (X63-RGADRAGGGGRGD-OH) | 0.72 ± 0.11 | 0.79 ± 0.12 | 8.91 ± 1.29 | 42.60 | 0.7586 ± 0.05265 | 52.30 | 0.6304 ± 0.03508 | 61.78 | 0.5051 ± 0.08266
3 | C[C@H](NC(=O)CNC(=O)[C@H](CCCNC(=N)N)NC(=O)CCc1cccc(N2C(=O)C=CC2=O)c1)C(=O)N[C@@H](CC(=O)O)C(=O)N[C@@H](CCCNC(=N)N)C(=O)N[C@@H](C)C(=O)NCC(=O)NCC(=O)NCC(=O)NCC(=O)N[C@@H](CCCNC(=N)N)C(=O)NCC(=O)N[C@@H](CC(=O)O)C(=O)O [X26] (X79-RGADRAGGGGRGD-OH) | 0.71 ± 0.14 | 0.84 ± 0.12 | 9.07 ± 1.32 | 41.47 | 0.7736 ± 0.06908 | 48.48 | 0.6810 ± 0.02943 | 68.51 | 0.4162 ± 0.00082
4 | C[C@H](NC(=O)CNC(=O)[C@H](CCCNC(=N)N)NC(=O)CCCCCCCCCCCCc1cccc(N2C(=O)C=CC2=O)c1)C(=O)N[C@@H](CC(=O)O)C(=O)N[C@@H](CCCNC(=N)N)C(=O)N[C@@H](C)C(=O)NCC(=O)NCC(=O)NCC(=O)NCC(=O)N[C@@H](CCCNC(=N)N)C(=O)NCC(=O)N[C@@H](CC(=O)O)C(=O)O [X36] (X65-RGADRAGGGGRGD-OH) | 0.74 ± 0.14 | 0.77 ± 0.13 | 8.86 ± 1.23 | 55.25 | 0.5915 ± 0.05135 | 60.38 | 0.5237 ± 0.03194 | 64.71 | 0.4664 ± 0.03733
5 | C[C@H](NC(=O)CNC(=O)[C@H](CCCNC(=N)N)NC(=O)CCCCCCCCCc1cccc(N2C(=O)C=CC2=O)c1)C(=O)N[C@@H](CC(=O)O)C(=O)N[C@@H](CCCNC(=N)N)C(=O)N[C@@H](C)C(=O)NCC(=O)NCC(=O)NCC(=O)NCC(=O)N[C@@H](CCCNC(=N)N)C(=O)NCC(=O)N[C@@H](CC(=O)O)C(=O)O [X33] (X64-RGADRAGGGGRGD-OH) | 0.82 ± 0.11 | 0.74 ± 0.17 | 9.08 ± 1.25 | 42.66 | 0.7579 ± 0.03744 | 46.86 | 0.7024 ± 0.04477 | 62.24 | 0.4991 ± 0.04854
6 | C[C@H](NC(=O)CNC(=O)[C@H](CCCNC(=N)N)NC(=O)CCCCCCCCCCc1ccccc1N1C(=O)C=CC1=O)C(=O)N[C@@H](CC(=O)O)C(=O)N[C@@H](CCCNC(=N)N)C(=O)N[C@@H](C)C(=O)NCC(=O)NCC(=O)NCC(=O)NCC(=O)N[C@@H](CCCNC(=N)N)C(=O)NCC(=O)N[C@@H](CC(=O)O)C(=O)O [X22] (X72-RGADRAGGGGRGD-OH) | 0.75 ± 0.14 | 0.83 ± 0.13 | 8.67 ± 1.32 | 49.30 | 0.6701 ± 0.07545 | 64.15 | 0.4738 ± 0.00344 | 66.52 | 0.4425 ± 0.04816
7 | C[C@H](NC(=O)CNC(=O)[C@H](CCCNC(=N)N)NC(=O)CCCCCCCCc1ccccc1N1C(=O)C=CC1=O)C(=O)N[C@@H](CC(=O)O)C(=O)N[C@@H](CCCNC(=N)N)C(=O)N[C@@H](C)C(=O)NCC(=O)NCC(=O)NCC(=O)NCC(=O)N[C@@H](CCCNC(=N)N)C(=O)NCC(=O)N[C@@H](CC(=O)O)C(=O)O [X20] (X55-RGADRAGGGGRGD-OH) | 0.82 ± 0.17 | 0.74 ± 0.14 | 9.07 ± 1.33 | 44.28 | 0.7365 ± 0.05032 | 46.12 | 0.7121 ± 0.0349 | 60.14 | 0.5268 ± 0.01299
8 | C[C@H](NC(=O)CNC(=O)[C@H](CCCNC(=N)N)NC(=O)CCCCc1cccc(N2C(=O)C=CC2=O)c1)C(=O)N[C@@H](CC(=O)O)C(=O)N[C@@H](CCCNC(=N)N)C(=O)N[C@@H](C)C(=O)NCC(=O)NCC(=O)NCC(=O)NCC(=O)N[C@@H](CCCNC(=N)N)C(=O)NCC(=O)N[C@@H](CC(=O)O)C(=O)O [X28] (X46-RGADRAGGGGRGD-OH) | 0.72 ± 0.18 | 0.73 ± 0.18 | 8.83 ± 1.26 | 48.58 | 0.6796 ± 0.03488 | 52.72 | 0.6249 ± 0.09489 | 69.71 | 0.4004 ± 0.02963
9 | C[C@H](NC(=O)CNC(=O)[C@H](CCCNC(=N)N)NC(=O)CCCCCCCCCCCc1ccccc1N1C(=O)C=CC1=O)C(=O)N[C@@H](CC(=O)O)C(=O)N[C@@H](CCCNC(=N)N)C(=O)N[C@@H](C)C(=O)NCC(=O)NCC(=O)NCC(=O)NCC(=O)N[C@@H](CCCNC(=N)N)C(=O)NCC(=O)N[C@@H](CC(=O)O)C(=O)O [X23] (X68-RGADRAGGGGRGD-OH) | 0.77 ± 0.17 | 0.77 ± 0.15 | 9.15 ± 1.47 | 45.59 | 0.7191 ± 0.07483 | 46.74 | 0.7043 ± 0.07872 | 48.91 | 0.6753 ± 0.00095
